Results as given in patent publication US20050178959A1, “Methods and compositions for assessing a sample by maldi mass spectrometry” (priority 2004, published 2005).
Non-standard residues stand in square brackets, D forms with d. No end group written: not given here. *: point of attachment. Biotin = O=C1N[C@H]2[C@H](CS[C@H]2CCCCC(=O)*)N1; pT = C[C@@H](OP(=O)(O)O)[C@H](N)C(=O)O; pS = N[C@@H](COP(=O)(O)O)C(=O)O

Tests used:
[1] = test system: GST-CAP1 (a protein having PDZ domain); assay: Peptide capture on streptavidin-agarose beads in filter plate, tryptic digestion, MALDI MS detection of bound GST-CAP1; settings: sample GST-CAP1; m/z as printed in cell above (1358.8 or 1152.6); signal size of about 1000 or more indicates significant binding
Description: (§1) To make the peptide array, the wells of a multiwell (i.e., 96-well filtration plate from Millipore having a pore size of 1.2 μm) filtration plate were first filled with a known volume of a suspension containing Streptavidin-linked agarose beads (Sigma). The biotinylated peptides were added (each in a separate well) and allowed to incubate with the avidin beads for a defined time interval following which vacuum (5-6 in. Hg) was applied to remove excess liquid. The immobilized peptides were then ready to be incubated with the protein mixture (e.g., a brain extract). After incubation, the peptide-protein complexes were washed in parallel, and subsequently subjected to enzymatic digestion (following in-gel digestion protocol). After digestion directly in the membrane plate, the digests were transferred to a MALDI plate for MS analysis, after concentration using a C18 resin-containing Millipore C18 ZIPTIP™ pipette tips.
(§2) In detail, 40 μL of streptavidin-agarose conjugate (Sigma S1638) was added to each well of a 96 well membrane filter plate washed with 200 μL of 1 mM TRIS HCl pH 7.5 (TRIS buffer) buffer using vacuum filtration. The beads were not allowed to dry out. The capture agents (e.g., biotinylated peptides, biotinylated antibodies, tagged proteins) were diluted with 1 mM TRIS HCl pH 7.5 buffer and 20 μL of each capture agent solution (at concentration of 1-2 mg/mL) was added to wells containing the avidin-agarose conjugate. The beads and capture agent were incubated for 1.5 to 2 hrs at room temperature using an orbital shaker (the plate was sealed during the incubation to avoid evaporation of the buffer). After incubation, excess solution was removed and the beads were washed with 200 μL of 1 mM TRIS HCl pH 7.5. A sample containing a protein of interest in TRIS buffer was added to the beads and the sample and beads were incubated overnight at room temperature using an orbital shaker (again using a sealed plate). The liquid was removed and the beads were washed using 200 μL of TRIS buffer. The capture agent-protein complexes, which are attached to the avidin-sepharose beads, were digested with 25 μL of trypsin in TRIS (concentration 20 μg/mL) at 45C for 45 min (again in a sealed plate). The 96 well plate containing the beads was placed in a manifold, and a vacuum was applied to collect each digest in a separate well of another 96-well plate. Using C18 ZIPTIP™ pipette tips (Millipore Corporation or equivalent) the digested peptides were extracted by prewashing the ZIPTIP™ with water/acetonitrile 1:1 then water containing 0.1% trifluoro-acetic acid, and then using the ZIPTIP™ pipette tips to capture the peptides from each well by moving each sample into and out of the tip at least 10 times, and wash the ZIPTIP™ pipette tip with water containing 0.1%TFA (trifluoroacetic acid). The peptides were eluted from the ZIPTIP™ pipette tip with MALDI matrix solution (e.g., 3-4 μL of HCCA at 0.5-1 mg/mL in actetonitrile/water or methanol/acetonitrile/water containing acetic acid) and spotted directly onto a MALDI sample plate.
(§3) The headers for each of the columns of Table 2 indicate, for each experiment, the peptide used as a capture agent. The first column of Table 2 indicates, for each experiment, the sample used. GST-CAP1, GST-FBP21, GST-14-3-3 are described above. “Brain extract” is a soluble protein extract of homogenized mouse brain, and, “QC” indicates the negative controls performed. M/z values indicate mass-to-charge ratios, and numbers in brackets indicate the size of the signal obtained, indicating the amount of the analytes present. In general, a signal size of about 1000 or more indicates significant binding.

GST-14-3-3 [2] = assay: Peptide capture on streptavidin-agarose beads in filter plate, tryptic digestion, MALDI MS detection of bound GST-14-3-3; type: binding; settings: sample GST-14-3-3; for signal size (number in brackets) of MALDI MS signal: m/z1245.7, signal size of about 1000 or more indicates significant binding; for signal size (number in brackets) of second MALDI MS signal: m/z1255.9, for SmB the signal is […]
Description: as §1, §2, §3

[3] = test system: mouse brain protein extract; assay: Peptide capture of proteins from brain extract, tryptic digestion, MALDI MS; type: binding; settings: for signal size of MALDI MS signal: sample brain extract (soluble protein extract of homogenized mouse brain), about 1000 or more indicates significant binding
Description: as §1
as §2, with “Using C18 ZIPTIP™ pipette tips (Millipore Corporation or equivalent) the digested peptides were extracted by prewashing the ZIPTIP™ with water/acetonitrile 1:1 then water containing 0.1% trifluoro-acetic acid, and then using the ZIPTIP™ pipette tips to capture the peptides from each well by moving each sample into and out of the tip at least 10 times, and wash the ZIPTIP™ pipette tip with water containing 0.1%TFA (trifluoroacetic acid). The peptides were eluted from the ZIPTIP™ pipette tip with MALDI matrix solution (e.g., 3-4 μL of HCCA at 0.5-1 mg/mL in actetonitrile/water or methanol/acetonitrile/water containing acetic acid) and spotted directly onto a MALDI sample plate.” left out

p60Src = p60Src (Homo sapiens, UniProt P12931); assay: SmB immobilized on avidin beads incubated with Src, digestion, MALDI MS (QC); type: binding
From the text: The following were used as targets: GST-CAP1 (a protein having PDZ domain), GST-FBP21 (a protein having WW domain), GST-14-3-3, p60Src (a protooncogene tyrosine protein kinase known not to bind to any of the peptides listed above), and a mouse brain protein extract. Four of the 8 target peptides are proline-rich peptides, which are identified as SmB, CDC25, LD10 and WBP1, and are known to bind SH3 domains.
as §1, with “After digestion directly in the membrane plate, the digests were transferred to a MALDI plate for MS analysis, after concentration using a C18 resin-containing Millipore C18 ZIPTIP™ pipette tips.” left out
Significant binding was detected between several capture agents and several probes.

[4] = molecular target: T1, GST-FBP21 (a protein having WW domain) (Homo sapiens, UniProt O75554); assay: Peptide capture on streptavidin-agarose beads in filter plate, tryptic digestion, MALDI MS detection of bound GST-FBP21; settings: sample GST-FBP21; m/z 1138.7 or 1152.8; signal size of about 1000 or more indicates significant binding
T1 construct: GST
T1 sequence (O75554 1-376): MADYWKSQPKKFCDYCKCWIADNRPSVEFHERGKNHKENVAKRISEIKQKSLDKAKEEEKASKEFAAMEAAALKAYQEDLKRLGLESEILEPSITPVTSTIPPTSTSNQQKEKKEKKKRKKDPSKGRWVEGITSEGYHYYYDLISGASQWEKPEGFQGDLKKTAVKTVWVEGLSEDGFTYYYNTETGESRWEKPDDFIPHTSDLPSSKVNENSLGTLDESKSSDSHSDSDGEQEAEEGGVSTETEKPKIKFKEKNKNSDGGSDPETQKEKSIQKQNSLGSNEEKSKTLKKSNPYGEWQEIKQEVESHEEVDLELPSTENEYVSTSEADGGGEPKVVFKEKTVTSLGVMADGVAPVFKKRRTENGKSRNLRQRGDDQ
Description: as §1, §2
The headers for each of the columns of Table 2 indicate, for each experiment, the peptide used as a capture agent. The first column of Table 2 indicates, for each experiment, the sample used. GST-CAP1, GST-FBP21, GST-14-3-3 are described above. “Brain extract” is a soluble protein extract of homogenized mouse brain, and, “QC” indicates the negative controls performed. […]

[5] = molecular target: T2, GST-FBP21 (a protein having WW domain); assay: biotinylated peptide on streptavidin-agarose beads, pull-down, trypsin digest, MALDI-MS, ion m/z1138.7
T2 sequence (O75554 whole entry, species assumed, looked up): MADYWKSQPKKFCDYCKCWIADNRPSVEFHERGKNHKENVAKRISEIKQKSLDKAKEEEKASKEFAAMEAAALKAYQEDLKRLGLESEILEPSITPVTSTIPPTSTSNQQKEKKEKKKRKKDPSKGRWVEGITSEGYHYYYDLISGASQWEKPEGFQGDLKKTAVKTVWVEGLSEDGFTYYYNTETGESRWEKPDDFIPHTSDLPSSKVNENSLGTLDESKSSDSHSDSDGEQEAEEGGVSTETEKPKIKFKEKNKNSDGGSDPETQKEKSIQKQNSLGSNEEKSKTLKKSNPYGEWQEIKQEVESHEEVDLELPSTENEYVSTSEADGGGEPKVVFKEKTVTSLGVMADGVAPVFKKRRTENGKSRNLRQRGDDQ

GST-14-3-3 [6] = assay: biotinylated peptide on streptavidin-agarose beads, pull-down, trypsin digest, MALDI-MS, ion m/z1245.7
[7] = molecular target: GST-CAP1 (a protein having PDZ domain); assay: biotinylated peptide on streptavidin-agarose beads, pull-down, trypsin digest, MALDI-MS, ion m/z1358.8
[8] = molecular target: T2, GST-FBP21 (a protein having WW domain); assay: biotinylated peptide on streptavidin-agarose beads, pull-down, trypsin digest, MALDI-MS, ion m/z1152.8

Biotin-PPGMRPPPPGMRRGPPPPGMRPPRP [SmB]
signal size (number in brackets) of MALDI MS signal [1]: 0
signal size (number in brackets) of MALDI MS signal (GST-14-3-3 [2]): (0)
signal size (number in brackets) of second MALDI MS signal (GST-14-3-3 [2]): (3,000) is
binding of WD11 repeat protein (WDR11) from brain extract ([3]; brain extract, spectra matched to known WD11 repeat protein (Table 3)): binds only the SmB peptide
binding of p60Src (p60Src): did not significantly bind

Biotin-SGSGEQPLT*PVTDL [CDC25]
signal size (number in brackets) of MALDI MS signal [1]: (480)
signal size (number in brackets) of MALDI MS signal [4]: (500)
signal size (number in brackets) of MALDI MS signal (GST-14-3-3 [2]): (0)
signal size (number in brackets) of second MALDI MS signal (GST-14-3-3 [2]): (800)

Biotin-SGSGGAPPTPPPLPP [LD10]
signal size (number in brackets) of MALDI MS signal [1]: (1,600)
signal size (number in brackets) of MALDI MS signal [4]: (15,000)
signal size (number in brackets) of MALDI MS signal (GST-14-3-3 [2]): (150)

Biotin-SGSGGTPPPPYTVG [WBP1]
signal size (number in brackets) of MALDI MS signal [1]: 0
signal size (number in brackets) of MALDI MS signal [4]: (9,000)
signal size (number in brackets) of MALDI MS signal (GST-14-3-3 [2]): 0
signal size of MALDI MS signal [3]: <100

Biotin-SGSGVLIKRRST*EL-COOH [COXG]
signal size (number in brackets) of MALDI MS signal [1]: 0
signal size (number in brackets) of MALDI MS signal [4]: (30,000)
signal size (number in brackets) of MALDI MS signal (GST-14-3-3 [2]): (500)
signal size of MALDI MS signal [3]: <100

Biotin-SGSGVLIKRRSTEL-OH [COXD]
signal size (number in brackets) of MALDI MS signal [1]: (1,100)
signal size (number in brackets) of MALDI MS signal [4]: (200)
signal size (number in brackets) of MALDI MS signal (GST-14-3-3 [2]): (3600)
signal size of MALDI MS signal [3]: <50

B1: COXD biotinylated peptide (Biotin-…-COOH) (peptide)
peptide: Biotin-SGSGVLIKRRSTEL-OH
SMILES: CC[C@H](C)[C@H](NC(=O)[C@H](CC(C)C)NC(=O)[C@@H](NC(=O)CNC(=O)[C@H](CO)NC(=O)CNC(=O)[C@H](CO)NC(=O)CCCC[C@@H]1SC[C@@H]2NC(=O)N[C@@H]21)C(C)C)C(=O)N[C@@H](CCCCN)C(=O)N[C@@H](CCCNC(=N)N)C(=O)N[C@@H](CCCNC(=N)N)C(=O)N[C@@H](CO)C(=O)N[C@H](C(=O)N[C@@H](CCC(=O)O)C(=O)N[C@@H](CC(C)C)C(=O)O)[C@@H](C)O
signal size [5]: 200
signal size (GST-14-3-3 [6]): 3600
signal size [7]: 1100

B2: Kir2.1* biotinylated phosphopeptide (Biotin-…*EI-COOH) (peptide)
peptide: Biotin-SGSGPRPLRRE[pS]EI-OH
SMILES: CC[C@H](C)[C@H](NC(=O)[C@H](CCC(=O)O)NC(=O)[C@H](COP(=O)(O)O)NC(=O)[C@H](CCC(=O)O)NC(=O)[C@H](CCCNC(=N)N)NC(=O)[C@H](CCCNC(=N)N)NC(=O)[C@H](CC(C)C)NC(=O)[C@@H]1CCCN1C(=O)[C@H](CCCNC(=N)N)NC(=O)[C@@H]1CCCN1C(=O)CNC(=O)[C@H](CO)NC(=O)CNC(=O)[C@H](CO)NC(=O)CCCC[C@@H]1SC[C@@H]2NC(=O)N[C@@H]21)C(=O)O
signal size [8]: 8000
signal size (GST-14-3-3 [6]): 8000

B3: COXG biotinylated phosphopeptide (Biotin-…*EL-COOH) (peptide)
peptide: Biotin-SGSGVLIKRRS[pT]EL-OH
SMILES: CC[C@H](C)[C@H](NC(=O)[C@H](CC(C)C)NC(=O)[C@@H](NC(=O)CNC(=O)[C@H](CO)NC(=O)CNC(=O)[C@H](CO)NC(=O)CCCC[C@@H]1SC[C@@H]2NC(=O)N[C@@H]21)C(C)C)C(=O)N[C@@H](CCCCN)C(=O)N[C@@H](CCCNC(=N)N)C(=O)N[C@@H](CCCNC(=N)N)C(=O)N[C@@H](CO)C(=O)N[C@H](C(=O)N[C@@H](CCC(=O)O)C(=O)N[C@@H](CC(C)C)C(=O)O)[C@@H](C)OP(=O)(O)O
signal size [5]: 30000
signal size (GST-14-3-3 [6]): 500

Biotin-SGSGEQPL[pT]PVTDL [CDC25 biotinylated phosphopeptide (Biotin-…*PVTDL)]
signal size [5]: 500
signal size [7]: 480

Biotin-SGSGGTPPPPYTVG [WBP1 biotinylated peptide (Biotin-…)]
signal size [5]: 9000

B4: Kir2.1 biotinylated peptide (Biotin-…-COOH) (peptide)
peptide: Biotin-SGSGPRPLRRESEI-OH
SMILES: CC[C@H](C)[C@H](NC(=O)[C@H](CCC(=O)O)NC(=O)[C@H](CO)NC(=O)[C@H](CCC(=O)O)NC(=O)[C@H](CCCNC(=N)N)NC(=O)[C@H](CCCNC(=N)N)NC(=O)[C@H](CC(C)C)NC(=O)[C@@H]1CCCN1C(=O)[C@H](CCCNC(=N)N)NC(=O)[C@@H]1CCCN1C(=O)CNC(=O)[C@H](CO)NC(=O)CNC(=O)[C@H](CO)NC(=O)CCCC[C@@H]1SC[C@@H]2NC(=O)N[C@@H]21)C(=O)O
signal size [8]: 900
signal size (GST-14-3-3 [6]): 400
signal size [7]: 250
